Source: patent publication US20250009742A1 (priority 2021, published 2025)
Like-named read-outs stand apart in the source and are kept apart here.

Legend:
[1] = Cell viability assay (EZ-Cytox), cytotoxicity; type: cell-based; conditions: human, HepAD38 cells; for viability at 65 h, 100 µM: read-out: Cytotoxicity % Livability (@100 μM)
Description: HepAD38 cells were cultured for 2 days in Dulbecco's Modified Eagle's medium (Welgene, LM001-05) supplemented with 10% FBS without tetracycline. […] After 65 hours of treatment, viability was measured using EZ-Cytox cell viability assay kit (Daeil Lab Service) according to the manufacturer's instructions. The absorbance was measured at 450 nm using a spectrophotometer (Spark, Tecan).

intracellular HBV DNA = experiment: Real-time PCR for intracellular HBV DNA in HepAD38 cells; type: cell-based; conditions: 65 hours treatment
Protein = Protein (Hepatitis B virus genotype D subtype ayw, UniProt P03146); experiment: Protein inhibition rate / EC50 (Table 1, no method described); type: biochemical; conditions: for inhibition at 3 µM: @3 μM (footnote *)
Chain of Protein (P03146 whole entry): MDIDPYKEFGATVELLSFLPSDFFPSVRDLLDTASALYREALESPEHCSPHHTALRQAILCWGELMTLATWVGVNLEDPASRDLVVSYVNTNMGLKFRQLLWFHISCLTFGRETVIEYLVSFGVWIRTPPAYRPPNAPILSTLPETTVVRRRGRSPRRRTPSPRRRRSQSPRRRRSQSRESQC

[2] = Hepatitis B virus, HePAD38, 65 h

O=C(Nc1ccc(F)c(Cl)c1)N(Cc1n[nH]c2c1CCCC2)c1ccc(=O)[nH]c1 [Example 14, 3-(3-chloro-4-fluorophenyl)-1-(6-oxo-1,6-dihydropyridin-3-yl)-1-((4,5,6,7-tetrahydro-1H-indazol-3-yl)methyl)urea]
CC50 at 65 h [1]: > 100000 nM
viability at 65 h, 100 µM [1]: 95.4%
IC50 (intracellular HBV DNA; [2]): 110 nM
EC50 (Protein): 7300 nM
inhibition at 30 µM (Protein): 14%

O=C(Nc1ccc(F)c(Cl)c1)N(Cc1n[nH]c2c1CCCC2)c1cc[nH]c(=O)c1 [Example 15, 3-(3-chloro-4-fluorophenyl)-1-(2-oxo-1,2-dihydropyridin-4-yl)-1-((4,5,6,7-tetrahydro-1H-indazol-3-yl)methyl)urea]
CC50 at 65 h [1]: > 100000 nM
viability at 65 h, 100 µM [1]: 84%
IC50 (intracellular HBV DNA; [2]): 310 nM
EC50 (Protein): 1400 nM
inhibition at 30 µM (Protein): 64.7%

COC(=O)c1ccc(N(Cc2n[nH]c3c2CCCC3)C(=O)Nc2ccc(F)c(Cl)c2)cc1 [Example 31, methyl 4-(3-(3-chloro-4-fluorophenyl)-1-((4,5,6,7-tetrahydro-1H-indazol-3-yl)methyl)ureido)benzoate]
CC50 at 65 h [1]: > 100000 nM
viability at 65 h, 100 µM [1]: 91.2%
IC50 (intracellular HBV DNA; [2]): 410 nM
EC50 (Protein): 3300 nM
inhibition at 30 µM (Protein): 90.4%

COc1ccc(N(Cc2n[nH]c3c2CCCC3)C(=O)Nc2ccc(F)c(Cl)c2)cc1 [Example 32, 3-(3-chloro-4-fluorophenyl)-1-(4-methoxyphenyl)-1-((4,5,6,7-tetrahydro-1H-indazol-3-yl)methyl)urea]
CC50 at 65 h [1]: 81400 nM
viability at 65 h, 100 µM [1]: 4.1%
IC50 (intracellular HBV DNA; [2]): 9.9 nM
EC50 (Protein): 9400 nM
inhibition at 30 µM (Protein): 5%

COc1ccc(N(Cc2n[nH]c3c2CN(C(C)=O)CC3)C(=O)Nc2ccc(F)c(Cl)c2)cc1 [Example 33, 1-((5-acetyl-4,5,6,7-tetrahydro-1H-pyrazolo[4,3-c]pyridin-3-yl)methyl)-3-(3-chloro-4-fluorophenyl)-1-(4-methoxyphenyl)urea]
viability at 65 h, 100 µM [1]: 96%
IC50 (intracellular HBV DNA; [2]): > 1100 nM
inhibition at 30 µM (Protein): 77.8%

COc1ccc(N(Cc2cc[nH]n2)C(=O)Nc2ccc(F)c(Cl)c2)cc1 [Example 34, 1-((1H-pyrazol-3-yl)methyl)-3-(3-chloro-4-fluorophenyl)-1-(4-methoxyphenyl)urea]
viability at 65 h, 100 µM [1]: 92.9%
IC50 (intracellular HBV DNA; [2]): > 1100 nM
inhibition at 30 µM (Protein): 55.2%

COc1ccc(N(Cc2ccn(C)n2)C(=O)Nc2ccc(F)c(Cl)c2)cc1 [Example 35, 3-(3-chloro-4-fluorophenyl)-1-(4-methoxyphenyl)-1-((1-methyl-1H-pyrazol-3-yl)methyl)urea]
viability at 65 h, 100 µM [1]: 90.5%
IC50 (intracellular HBV DNA; [2]): > 1100 nM
inhibition at 30 µM (Protein): 33.7%

COc1ccc(N(Cc2nn(C)c3c2CCCC3)C(=O)Nc2ccc(F)c(Cl)c2)cc1 [Example 36, 3-(3-chloro-4-fluorophenyl)-1-(4-methoxyphenyl)-1-((1-methyl-4,5,6,7-tetrahydro-1H-indazol-3-yl)methyl)urea]
CC50 at 65 h [1]: > 100000 nM
viability at 65 h, 100 µM [1]: 100%
IC50 (intracellular HBV DNA; [2]): 36 nM
EC50 (Protein): 9200 nM
inhibition at 30 µM (Protein): 91.6%

COc1ccc(N(Cc2n[nH]c3c2CN(C)CC3)C(=O)Nc2ccc(F)c(Cl)c2)cc1 [Example 37, 3-(3-chloro-4-fluorophenyl)-1-(4-methoxyphenyl)-1-((5-methyl-4,5,6,7-tetrahydro-1H-pyrazolo[4,3-c]pyridin-3-yl)methyl)urea]
viability at 65 h, 100 µM [1]: 22.4%
IC50 (intracellular HBV DNA; [2]): > 1100 nM
inhibition at 30 µM (Protein): 28.3%

COc1ccc(N(Cc2n[nH]c3c2COCC3)C(=O)Nc2ccc(F)c(Cl)c2)cc1 [Example 38, 3-(3-chloro-4-fluorophenyl)-1-(4-methoxyphenyl)-1-((1,4,6,7-tetrahydropyrano[4,3-c]pyrazol-3-yl)methyl)urea]
CC50 at 65 h [1]: > 100000 nM
viability at 65 h, 100 µM [1]: 104%
IC50 (intracellular HBV DNA; [2]): 18 nM
EC50 (Protein): 1600 nM
inhibition at 30 µM (Protein): 80%

COc1ccc(N(Cc2n[nH]c3c2CC(F)(F)CC3)C(=O)Nc2ccc(F)c(Cl)c2)cn1 [Example 40, 3-(3-chloro-4-fluorophenyl)-1-((5,5-difluoro-4,5,6,7-tetrahydro-1H-indazol-3-yl)methyl)-1-(6-methoxypyridin-3-yl)urea]
CC50 at 65 h [1]: 82500 nM
viability at 65 h, 100 µM [1]: 4.6%
IC50 (intracellular HBV DNA; [2]): 16 nM
EC50 (Protein): 3800 nM
inhibition at 30 µM (Protein): 99.5%

COc1ccc(N(Cc2n[nH]c3c2CCC3)C(=O)Nc2ccc(F)c(Cl)c2)cn1 [Example 41, 3-(3-chloro-4-fluorophenyl)-1-(6-methoxypyridin-3-yl)-1-((1,4,5,6-tetrahydrocyclopenta[c]pyrazol-3-yl)methyl)urea]
CC50 at 65 h [1]: > 100000 nM
viability at 65 h, 100 µM [1]: 97.8%
IC50 (intracellular HBV DNA; [2]): 18 nM
EC50 (Protein): 2600 nM
inhibition at 3 µM (Protein): 59%

COc1ccc(N(Cc2n[nH]c3c2CCCC3)C(=O)Nc2ccc(F)c(Cl)c2)cn1 [Example 42, 3-(3-chloro-4-fluorophenyl)-1-(6-methoxypyridin-3-yl)-1-((4,5,6,7-tetrahydro-1H-indazol-3-yl)methyl)urea]
CC50 at 65 h [1]: > 100000 nM
viability at 65 h, 100 µM [1]: 99.5%
IC50 (intracellular HBV DNA; [2]): 37 nM
EC50 (Protein): 4300 nM
inhibition at 3 µM (Protein): 13%

COc1ccc(N(Cc2n[nH]c3ccccc23)C(=O)Nc2ccc(F)c(Cl)c2)cn1 [Example 43, 1-((1H-indazol-3-yl)methyl)-3-(3-chloro-4-fluorophenyl)-1-(6-methoxypyridin-3-yl)urea]
CC50 at 65 h [1]: > 100000 nM
viability at 65 h, 100 µM [1]: 92%
IC50 (intracellular HBV DNA; [2]): 43 nM
EC50 (Protein): 6060 nM
inhibition at 30 µM (Protein): 96.7%

COc1ccc(N(Cc2n[nH]c3c2CC(CO)CC3)C(=O)Nc2ccc(F)c(Cl)c2)cn1 (stereo not shown) [Example 44, 3-(3-chloro-4-fluorophenyl)-1-((5-(hydroxymethyl)-4,5,6,7-tetrahydro-1H-indazol-3-yl)methyl)-1-(6-methoxypyridin-3-yl)urea]
CC50 at 65 h [1]: > 100000 nM
viability at 65 h, 100 µM [1]: 100%
IC50 (intracellular HBV DNA; [2]): > 1100 nM
inhibition at 30 µM (Protein): 58%

COc1ccc(N(Cc2n[nH]c3c2CSCC3)C(=O)Nc2ccc(F)c(Cl)c2)cn1 [Example 45, 3-(3-chloro-4-fluorophenyl)-1-(6-methoxypyridin-3-yl)-1-((1,4,6,7-tetrahydrothiopyrano[4,3-c]pyrazol-3-yl)methyl)urea]
CC50 at 65 h [1]: > 50000 nM
viability at 65 h, 100 µM [1]: 3.3%
IC50 (intracellular HBV DNA; [2]): 12 nM
EC50 (Protein): 3300 nM
inhibition at 30 µM (Protein): 95.6%

COc1ccc(N(Cc2n[nH]c3c2CCC3)C(=O)Nc2ccc(F)c(Cl)c2)cc1 [Example 46, 3-(3-chloro-4-fluorophenyl)-1-(4-methoxyphenyl)-1-((1,4,5,6-tetrahydrocyclopenta[c]pyrazol-3-yl)methyl)urea]
CC50 at 65 h [1]: > 100000 nM
viability at 65 h, 100 µM [1]: 100%
IC50 (intracellular HBV DNA; [2]): 9.4 nM
EC50 (Protein): 4300 nM
inhibition at 30 µM (Protein): 92.8%

COc1ccc(N(Cc2n[nH]c3c2CC(C)(C)CC3)C(=O)Nc2ccc(F)c(Cl)c2)cn1 [Example 47, 3-(3-chloro-4-fluorophenyl)-1-((5,5-dimethyl-4,5,6,7-tetrahydro-1H-indazol-3-yl)methyl)-1-(6-methoxypyridin-3-yl)urea]
CC50 at 65 h [1]: > 100000 nM
viability at 65 h, 100 µM [1]: 50.7%
IC50 (intracellular HBV DNA; [2]): 990 nM
EC50 (Protein): 9600 nM
inhibition at 30 µM (Protein): 95.3%

COc1ccc(N(Cc2cc(C)nn2C)C(=O)Nc2ccc(F)c(Cl)c2)cc1 [Example 108, 3-(3-chloro-4-fluorophenyl)-1-((1,3-dimethyl-1H-pyrazol-5-yl)methyl)-1-(4-methoxyphenyl)urea]
IC50 (intracellular HBV DNA; [2]): 360 nM
EC50 (Protein): 5300 nM
inhibition at 30 µM (Protein): 89.9%

COc1ccc(N(Cc2cn(C)nc2C)C(=O)Nc2ccc(F)c(Cl)c2)cc1 [Example 159, 3-(3-chloro-4-fluorophenyl)-1-((1,3-dimethyl-1H-pyrazol-4-yl)methyl)-1-(4-methoxyphenyl)urea]
IC50 (intracellular HBV DNA; [2]): > 3300 nM
inhibition at 30 µM (Protein): 4%

COc1ncc(N(Cc2cc(C(F)(F)F)[nH]n2)C(=O)Nc2cc(F)c(F)c(F)c2)cn1 [Example 219, 1-(2-methoxypyrimidin-5-yl)-1-((5-(trifluoromethyl)-1H-pyrazol-3-yl)methyl)-3-(3,4,5-trifluorophenyl)urea]
CC50 at 65 h [1]: > 100000 nM
viability at 65 h, 100 µM [1]: 53.7%
IC50 (intracellular HBV DNA; [2]): 12 nM

COC12CC(N(Cc3cc(C(F)(F)F)[nH]n3)C(=O)Nc3cc(F)c(F)c(F)c3)(C1)C2 [Example 222, 1-(3-methoxybicyclo[1.1.1]pentan-1-yl)-1-((5-(trifluoromethyl)-1H-pyrazol-3-yl)methyl)-3-(3,4,5-trifluorophenyl)urea]
CC50 at 65 h [1]: 31700 nM
viability at 65 h, 100 µM [1]: 2.5%
IC50 (intracellular HBV DNA; [2]): 120 nM

COc1ncc(N(Cc2cc(C#N)[nH]n2)C(=O)Nc2cc(F)c(F)c(F)c2)cn1 [Example 223, 1-((5-cyano-1H-pyrazol-3-yl)methyl)-1-(2-methoxypyrimidin-5-yl)-3-(3,4,5-trifluorophenyl)urea]
CC50 at 65 h [1]: > 100000 nM
viability at 65 h, 100 µM [1]: 87.5%
IC50 (intracellular HBV DNA; [2]): 70 nM

COc1ncc(N(Cc2cc(C(F)(F)F)[nH]n2)C(=O)Nc2cc(F)c(F)c(F)n2)cn1 [Example 224, 1-(2-methoxypyrimidin-5-yl)-1-((5-(trifluoromethyl)-1H-pyrazol-3-yl)methyl)-3-(4,5,6-trifluoropyridin-2-yl)urea]
CC50 at 65 h [1]: > 100000 nM
viability at 65 h, 100 µM [1]: 100%
IC50 (intracellular HBV DNA; [2]): 210 nM

COc1ncc(N(Cc2cc(C(F)(F)F)[nH]n2)C(=O)Nc2cccc(C(F)(F)F)n2)cn1 [Example 225, 1-(2-methoxypyrimidin-5-yl)-1-((5-(trifluoromethyl)-1H-pyrazol-3-yl)methyl)-3-(6-(trifluoromethyl)pyridin-2-yl)urea]
CC50 at 65 h [1]: > 100000 nM
viability at 65 h, 100 µM [1]: 105%
IC50 (intracellular HBV DNA; [2]): 210 nM

O=C(Nc1cc(F)c(F)c(F)c1)c1ccc(F)c(S(=O)(=O)N2CCC(O)CC2)c1 [NVR, reference compound]
IC50 (intracellular HBV DNA; read-out: IC50): 340 nM
EC50 (Protein): 3600 nM
